One experiment concerns the target T1, Aβ40 peptides (Homo sapiens, UniProt P05067).
T1 construct: host or cells: E. coli BL21(DE3)
Kind of experiment: Complexation of Aβ40 with bexarotene (UV absorbance titration at 280 nm). The experiment is classed as binding. Particulars: 156 μM Aβ40 in ammonium acetate titrated with 20 aliquots of 142 μM bexarotene; absorbance at 280 nm vs sum of individual absorbances. The method, then:
This addition was repeated 20 times.
Complexation of Aβ40 with bexarotene. To determine the extinction coefficient of bexarotene at 280 nm, we measured the absorbance of bexarotene at 14 gradually decreasing concentrations (Fig. S2A). The stock solution of bexarotene (0.2 mM) was diluted in ammonium acetate to achieve the desired concentrations. Then, the correlation between absorbance and bexarotene concentration was plotted and the extinction coefficient was obtained from the slope of the best linear regression fit (ε280 = 10370 ± 83 M^-1 cm^-1).
This addition was repeated 20 times, and at each step, a spectrum was collected using DU 800 Spectrophotometer (Beckman Coulter).

Another experiment has as its system Aβ42. As to conditions: cited from earlier work.
In experiment [1] the target is T2, Aβ40 fibrils nucleated in the absence of bexarotene (normal fibrils) (Homo sapiens, UniProt P05067).
T2 construct: host or cells: E. coli BL21(DE3)
Kind of experiment: Time-resolved in situ AFM: growth rate of normal Aβ40 fibrils after adding bexarotene. The experiment is classed as biochemical. Particulars: 3 μM Aβ40, bexarotene 0.1, 0.5 and 1.0 μM, 27 °C, about 30 measurements per concentration.
Method: We deposit fibrils preformed in the absence of bexarotene on mica and monitor the growth of the fibril tips along the fibril axis with respect to immobile reference points (Fig. 2B) in Aβ40 solutions with known concentrations. We evaluate the fibril growth rate as the slope of the time correlation of the fibril tip displacement (Fig. 2C) ([41]). […] Fibril growth comprises association of peptide chains to fibril tips.
To prepare samples for AFM growth rate measurements, 2 μl of second-generation normal (or bexarotene) fibrils was added to the fibril growth buffer. Urea (Sigma–Aldrich) was also added to the solution, to a final concentration of 1 M, if needed based on the experiments. The diluted fibril solution then was sonicated (6 W output) for 2 min with 15 s intervals on ice and was kept at 27 °C for at least 15 min to equilibrate the temperature. Then Aβ40 peptides were added to the fibril solution at a desired final concentration, and the total volume of the solution was adjusted to 1 ml. […]
To study the effect of bexarotene on normal and bexarotene fibril growth rates (Figs. 2D and 5D), first, a fibril suspension at 3 μM Aβ40 peptide concentration was prepared as described previously, without bexarotene, and the fibril growth was monitored with AFM in tapping mode for 15 to 30 min. […]

Another experiment has as its target T3, Aβ40 (Homo sapiens, UniProt P05067).
T3 construct: host or cells: E. coli BL21(DE3)
Kind of experiment: Thioflavin T (ThT) fluorescence assay of Aβ40 fibrillization. The experiment is classed as biochemical. Particulars: 50 μM Aβ40, bexarotene 17 and 50 μM, 35 μM ThT, 40 mM sodium phosphate pH 7.4, 37 °C, ex 442/em 488 nm, 15 h. The method, then:
To monitor the evolution of fibrillization and the overall impact of bexarotene, we employed the fluorescence intensity emitted at 488 nm by the dye thioflavin T (ThT) in the presence of Aβ sheets, which is expected to scale the total amyloid mass ([42]).
The stock solution of ThT was prepared by dissolving ThT (Sigma–Aldrich) in ethanol (Decon Labs) and filtering through […] polyethersulfone syringe filter. […] For control experiment, ammonium acetate solution in a volume equivalent to the peptides volume was added to the growth buffer instead of Aβ40 peptides. […] The ThT fluorescence signal was measured at 37 °C (with mixing every 5 min) every 15 min with excitation and emission at 442 and 488 nm, respectively, for a period of 15 h using SpectraMax Gemini EM Microplate Reader (Molecular Devices). The sigmoid curves were obtained by subtracting the […] of the control and normalizing all the data points to their maximum value.
Thioflavin T (ThT) fluorescence assay. […] The concentration was determined by measuring the absorbance at 416 nm using the extinction coefficient of 26.6 mM^-1 cm^-1. […] The ThT fluorescence signal was measured at 37 °C (with mixing every 5 minutes) every 15 minutes with excitation and emission at 442 nm and 488 nm, respectively, for a time period of 15 hours using SpectraMax Gemini EM Microplate Reader (Molecular Devices). […]

The target of experiment [2] is T4, Aβ40 fibrils with structure imposed by bexarotene (bexarotene fibrils) (Homo sapiens, UniProt P05067).
T4 construct: host or cells: E. coli BL21(DE3)
Kind of experiment: Time-resolved in situ AFM: growth rate of bexarotene fibrils after adding bexarotene. The experiment is classed as biochemical. Particulars: 3 μM Aβ40, 1 μM bexarotene, 27 °C.
Method: To prepare samples for AFM growth rate measurements, 2 μl of second-generation normal (or bexarotene) fibrils was added to the fibril growth buffer. Urea (Sigma–Aldrich) was also added to the solution, to a final concentration of 1 M, if needed based on the experiments. The diluted fibril solution then was sonicated (6 W output) for 2 min with 15 s intervals on ice and was kept at 27 °C for at least 15 min to equilibrate the temperature. Then Aβ40 peptides were added to the fibril solution at a desired final concentration, and the total volume of the solution was adjusted to 1 ml.
Multimode atomic force microscope (Nanoscope VIII or IV; Bruker) in tapping mode was used to monitor the growth of fibrils. To collect images, 500 μl of the prepared sample was injected into the AFM liquid cell over freshly cut mica (Ted Pella, Inc) attached to a 15 mm metal disk (Ted Pella, Inc), and to avoid any leakage, an O-ring was inserted firmly to the liquid cell. The temperature in the liquid cell reached equilibrium of 27.0 ± 0.1 °C within 15 min, higher than room temperature (ca. 22 °C), because of heating by the AFM scanner and laser ([69], [70], [71]). Height, amplitude, and phase images were collected in image sizes ranged from 2 μm × 2 μm to 8 μm × 8 μm, and scan rates range between 3 and 3.5 s^−1 in most images. […]

The values below come from paper PMC9720346, “Suppression of amyloid-β fibril growth by drug-engineered polymorph transformation” (The Journal of Biological Chemistry, 2022).

T3 sequence (P05067 671-711): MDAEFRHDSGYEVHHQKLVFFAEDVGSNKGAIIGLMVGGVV
T1 sequence (P05067 671-711): as above
T2 sequence (P05067 671-711): as above
T4 sequence (P05067 671-711): as above

For the molecule `C=C(c1ccc(C(=O)O)cc1)c1cc2c(cc1C)C(C)(C)CCC2(C)C` [bexarotene], the “binding of bexarotene to Aβ40 monomers (complex formation)” value on Aβ40 peptides is reported as “does not perceptibly bind”. Also, the “binding of bexarotene to Aβ42” value with Aβ42 is listed as “undetectable binding”. Also, the “average growth rate of normal fibrils after adding bexarotene” value in experiment [1] is given as “does not modify the average growth rates”. For the same molecule, on Aβ40, the “initial period of negligible ThT fluorescence (fibril nucleation delay)” value is given as “suppresses Aβ40 fibril nucleation”. Moreover, the “growth rate of bexarotene fibrils after adding bexarotene” value in experiment [2] was “does not inhibit or promote the growth”.
